Experimental data: paper PMC3835791, “Non-Invasive Imaging of Tumors by Monitoring Autotaxin Activity Using an Enzyme-Activated Near-Infrared Fluorogenic Substrate” (PLoS ONE, 2013)

Key:
mouse ATX = molecular target: T1, mouse ATX (Mus musculus, UniProt Q9R1E6); assay: AR-2 reactions with purified enzymes: mouse ATX; type: biochemical; conditions: AR-2 100 nM, 10 nM enzyme
T1 construct: purchased R&D Systems (Minneapolis, MN)
Protocol: (§1) AR-2 (100 nM) was incubated with the indicated enzyme in buffer containing 50 mM Tris-Cl pH 8.0, 5 mM KCl, 1 mM CaCl2, 1 mM MgCl2, 140 mM NaCl, and 1 mg/mL fatty acid free bovine serum albumin. Reactions were immediately placed in a Spectramax M2 plate reader (Molecular Devices, Sunnyvale, CA) set at 37°C, monitoring fluorescence exciting at 750 nm and emitting at 805 nm over time. Unless otherwise stated, all reactions used 10 nM enzyme, except alkaline phosphatase, which was performed at 0.1 unit/µL.

[1] = Pharmacokinetics of AR-2 in plasma after intravenous dosing; type: in vivo, mice
Protocol: To investigate preliminary PK of AR-2, female BALB/c mice aged 8–10 wks old (Charles River Laboratories, MA) were used. The animals were allowed to acclimatize to housing at least one week prior to use. At day 0, AR-2 was administered as a single bolus injection through lateral tail vein at a dosage of 1.0 mg/kg b.w. The animals were then lightly anesthetized with isoflurane for blood collection at 0, 0.08, 0.25, 0.5, 1, 2, 4, 6, 24, and 48 h after AR-2 administration. Blood samples were collected in EDTA coated tubes by submandibular bleeding or caudal vena cava (at time of sacrifice) with the maximum number of two blood collections from each animal. The collected blood samples were centrifuged, and the plasma was stored at −20°C until analysis.
To determine the concentration of AR-2 in plasma, samples were prepared according to the following procedures. Plasma samples were mixed with nine volumes of tert-butanol∶water (7∶1) then centrifuged at 14,000× g to pellet precipitated proteins. The resulting supernatant was frozen and lyophilized. Samples were then reconstituted in cold PBS and subjected to HPLC analysis using a C18 column (Waters, Milford, MA) with a gradient of 5–60% acetonitrile in 50 mM triethylammonium acetate (pH 6.0). Peaks with absorbance at 778 nm were integrated and compared to mouse plasma samples containing known concentrations of AR-2. The resulting AR-2 concentration versus time data were plotted and fitted with a sum of two exponentials to calculate plasma half-life (t1/2) and various pharmacokinetic parameters using the PK package in R Statistics (version 2.15.1).

[2] = test system: MDA-MB-231 orthotopic tumor (ATX activity); assay: In vivo NIRF imaging and ex vivo tissue analysis of mice with orthotopic tumors
Source text: Animal studies were approved by the Institutional Animal Care and Use Committee (IACUC) of the University of Utah (protocol numbers 10-10016 and 12-05013). Tumors in mice were established as previously described, [41]. Briefly, approximately ten-week old female nude (Nu/Nu) mice (Charles River Laboratories International, Wilmington, MA) were lightly anesthetized with isoflurane and subcutaneously inoculated with MDA-MB-231 cells in the left thoracic mammary glands. Prior to inoculation, cells were suspended in Extracel to make 5×10^7 cells/mL and each mouse received 0.1 mL of Extracel tumor suspension. To reduce auto-fluorescence arising from the feed, mice were switched to specially formulated diet (2920X, Harlan Laboratories, WI) at least two days prior to imaging.
Six weeks after tumor graft, mice were imaged using AR-2. To visualize tumors, AR-2 was diluted in PBS, filtered through a 0.2 µm porous membrane, and intravenously injected via the lateral vein at 0.5 mg/kg b.w. bolus. The animals were then imaged 48 h after injection with a Pearl Impulse Imager (LI-COR Biosciences, NE) using the 800 nm channel. The fluorescence signals from acquired images were analyzed using Pearl Impulse Software v 2.0 (LI-COR Biosciences) according the manufacturer's protocols. […] ATX-Red dosing, delivery and imaging were unchanged.
Animals were sacrificed, organs were dissected and weighed, then ex vivo fluorescence was imaged and quantified as previously described. Tumors were immediately frozen until further use. Thawed tumors were homogenized in ice cold buffer containing 10 mM Tris pH 7.4, 200 mM NaCl, 10% glycerin, 5 mM EDTA and 1× Halt protease inhibitor cocktail (Thermo Scientific, Rockford, Il.) at a ratio of 40 mg tumor to 1 mL buffer. Samples were centrifuged at 14,000× g at 4°C. ATX levels were determined by diluting supernatants ten times in RD5-10 and assayed using a Human ENPP-2/Autotaxin ELISA (R&D Systems, Minneapolis, MN) and an Autotaxin Sandwich ELISA (Echelon Biosciences, Inc., Salt Lake City, UT) using the manufacturers' protocol. Total protein levels were determined by the method of Bradford. Statistical significance was compared using a two-tailed t-test using Prism.

Purified human ATX [3] = molecular target: T2, Purified human ATX (Homo sapiens, UniProt Q13822); assay: Michaelis constant of fluorogenic ATX substrates; type: biochemical; conditions: fluorogenic ATX substrate, rate of fluorescence increase at varying substrate concentrations
T2 construct: purchased Echelon Biosciences, Inc. (Salt Lake City, UT)
Protocol: as §1
(§2) The Michaelis constant (Km) was determined for each compound by measuring the rate of fluorescence increase at varying substrate concentrations using Prism to fit to the Michaelis-Menton equation. Inner filter effects were overcome using previously described methods. The inhibition constant (Ki) for each set of reactions was determined from the IC50 following standard methods.

[4] = test system: human NPP1, human and mouse NPP7, shrimp alkaline phosphatase, human LPLA2 and human INPP4A; assay: AR-2 reactions with purified enzymes homologous to ATX (selectivity panel); type: biochemical; conditions: AR-2 100 nM, 10 nM enzyme (alkaline phosphatase 0.1 unit/µL), versus buffer control
Protocol: as §1

human ATX = molecular target: T3, human ATX (Homo sapiens, UniProt Q13822); assay: AR-2 reactions with purified enzymes: human ATX; type: biochemical; conditions: AR-2 100 nM, 10 nM enzyme
T3 construct: purchased Echelon Biosciences, Inc. (Salt Lake City, UT)
Protocol: as §1

[5] = molecular target: T4, ATX in media from COS-7 cells (Homo sapiens, UniProt Q13822); assay: AR-2 activation by media from COS-7 cells transfected with ATX-encoding plasmid; type: cell-based; conditions: AR-2 1 µM
T4 construct: expressed in transfected cells; host or cells: COS-7
Protocol: COS-7 cells grown in Dulbecco's Modified Eagle Medium (DMEM) supplemented with 10% FBS and penicillin/streptomycin were transfected with human β ATX cDNA inserted into pcDNA DEST40 (Invitrogen, CA) or mock plasmid in DMEM without FBS using TransIT®-2020 transfection reagent (Mirus Bio, WI) according to the manufacturer's protocol.
(§3) Equal volumes of cell media (COS-7) or conditioned media (MDA-MB-231 or MDA-MB 435) were mixed with buffer to achieve a final concentration of AR-2 (1 µM). All other conditions were as described for purified enzymes.

[6] = molecular target: T5, ATX in conditioned media from MDA-MB-435 and MDA-MB-231 cells (Homo sapiens, UniProt Q13822); assay: AR-2 activation by conditioned media from cancer cells overexpressing ATX, with and without PF-8380; type: cell-based; conditions: PF-8380 1 µM, conditioned media from MDA-MB-435 or MDA-MB-231 cells, AR-2 1 µM
T5 construct: host or cells: MDA-MB-231 and MDA-MB-435 (conditioned media concentrated about 40-fold)
Protocol: MDA-MB-231 and MDA-MB-435 cells were grown to 80% confluence in Roswell Park Memorial Institute (RPMI) medium supplemented with 10% FBS. Cells were rinsed twice with PBS and grown for approximately 60 h in RPMI supplemented with 1% FBS. Media were centrifuged at 1000× g for 1 min to collect cells. Conditioned media was prepared by concentrating the supernatant ∼40-fold using Amicon Ultra YM30 (Millipore, Billerica, MA).
as §3

Purified human ATX [7] = molecular target: T2, Purified human ATX; assay: Evaluation of ATX inhibition with fluorogenic substrates (AR-2 or FS-3); type: biochemical; conditions: human ATX 2 nM, 37°C, Ki determined from the IC50
Protocol: DMSO was spiked into each reaction mixture to equalize vehicle concentrations. Purified human ATX (2 nM final concentration) was mixed with varying concentrations of inhibitor at 37°C for 10 min, then AR-2 or FS-3 was added to a final concentration of 1 µM. The rates of fluorescence increase were measured for up to 2 h. The initial velocity of fluorescence increase was determined and normalized to control reactions. The IC50 of each compound was calculated by fitting a standard curve using a sigmoidal dose-response (variable slope) nonlinear regression curve using GraphPad Prism (version 5.03).
as §2

[8] = MDA-MB-231 xenografts, 48 h after AR-2 dosing, ex vivo

CC1(C)C(/C=C/C2=C(Oc3ccc(S(=O)(=O)O)cc3)C(=C/C=C3/N(CCCCS(=O)(=O)O)c4ccc(S(=O)(=O)[O-])cc4C3(C)C)/CCC2)=[N+](CCCCCC(=O)NCCCCCC(=O)OC[C@@H](O)COP(=O)(O)OCCNC(=O)CCOCCOCCOCCOCCNC(=O)CCCCCN2/C(=C/C=C3\CCCC(/C=C/C4=[N+](CCCS(=O)(=O)O)c5ccc(N(CCCS(=O)(=O)O)CCCS(=O)(=O)O)cc5C4(C)C)=C3Cl)C(C)(C)c3c2ccc2cc(S(=O)(=O)[O-])ccc32)c2ccc(S(=O)(=O)O)cc21 [AR-2]
activation of AR-2 fluorescence by mouse ATX (mouse ATX): activated AR-2 with similar efficiencies
apparent volume of distribution (Vd) in 20 g mouse ([1]; 20 g mouse): 8.6 mL
fraction of AR-2 eliminated ([1]; 42 h after dosing (5 half-lives)): approximately 97%
half-life of first phase of bi-exponential plasma decrease ([1]; BALB/c mice, 1.0 mg/kg i.v. bolus, bi-exponential fit, first phase): 18 min
apparent volume of distribution (Vd) ([1]; mice, i.v.): 432 mL/kg, b.w.
apparent volume of distribution as share of body weight ([1]; mice, i.v.): ~43 % of body weight
NIRF signal in excised tumors compared to most other organs [2, 8]: strongly elevated
NIRF signal in kidneys and liver [2, 8]: Moderate signals
NIRF signal in stomach [2, 8]: Modest fluorescence
Km (Purified human ATX [3]): 0.66 ± 0.05 µM
activation of AR-2 fluorescence by related enzymes [4]: none of the related enzymes tested generated a fluorescence response above buffer control
activation of AR-2 fluorescence by human ATX (human ATX): activated AR-2 with similar efficiencies
activation of AR-2 by media from ATX-transfected versus mock-transfected COS-7 cells [5]: media from ATX-transfected, but not mock-transfected, cells activated AR-2

O=C(CCN1CCN(C(=O)OCc2cc(Cl)cc(Cl)c2)CC1)c1ccc2[nH]c(=O)oc2c1 [PF-8380, reference compound]
rate of AR-2 fluorescence signal generation in conditioned media with inhibitor [6]: dramatically reduced
AR-2 fluorescence signals in excised tumors normalized to protein, inhibitor-treated versus vehicle-treated mice ([2]; PF-8380 30 mg/kg single oral gavage 20 min prior to AR-2 injection, MDA-MB-231 tumors, P<0.001): significantly reduced

CCCCCCCCCCCCCC(=O)Nc1ccc(CP(=O)(O)O)cc1 [S32826]
Ki (Purified human ATX [7]; ATX substrate AR-2 (1 µM)): 1.6 ± 1.9 nM
Ki (Purified human ATX [7]; ATX substrate FS-3 (1 µM)): 5.5 ± 3.3 nM
